*1 amine or outer side, *2 acyl side, *3 side chain or, on linkers, in order; H or OH if unused. Where a SMILES comes first, the peptide text is derived from it. Bridges are numbered along the chain shown (N, C = ends). [ ]: non-standard residue; d: D form. cBu(1-CO,cis-3-CH2NH) = O=C([C@H]1C[C@@H](CN[*:1])C1)[*:2]; X48 = CCCC[C@@H](/C=C\[C@@H](Cc1cccnc1)C(=O)[*:2])N[*:1]; NMeNva(5-imidazol-1-yl) = CN[C@@H](CCCn1ccnc1)C(=O)O; Phe(4-guanidino) = N=C(N)Nc1ccc(C[C@H](N)C(=O)O)cc1; X22 = CNC(=N)N(C)CCC[C@@H](C(=O)[*:2])N(C)[*:1]; Ala(pyrimidin-5-yl) = N[C@@H](Cc1cncnc1)C(=O)O; NMe3Pal(6-Me) = CN[C@@H](Cc1ccc(C)nc1)C(=O)O; NMePhe(3-Me) = CN[C@@H](Cc1cccc(C)c1)C(=O)O; X5 = O=C([C@H](Cc1c(F)ccnc1F)N[*:1])[*:2]; X46 = O=C([C@H](Cc1cccnc1F)N[*:1])[*:2]; NMeAha = CN[C@@H](CCN=[N+]=[N-])C(=O)O; X32 = CS(=O)(=O)CCCN(CC(=O)[*:2])[*:1]; Phe(2-F) = N[C@@H](Cc1ccccc1F)C(=O)O; NMe3Pal = CN[C@@H](Cc1cccnc1)C(=O)O; X1 = O=C(C12CC(CN[*:1])(C1)C2)[*:2]; Ala(cPr) = N[C@@H](CC1CC1)C(=O)O; NMeF = CN[C@@H](Cc1ccccc1)C(=O)O; PhLac = O=C(O)[C@@H](O)Cc1ccccc1; X9 = CCCC[C@H](O[*:1])C(=O)[*:2]; 3Pal = N[C@@H](Cc1cccnc1)C(=O)O; Ahp(2) = CCCCC[C@H](N)C(=O)O; Cba = N[C@@H](CC1CCC1)C(=O)O; hLeu = CC(C)CC[C@H](N)C(=O)O; αMeC = C[C@](N)(CS)C(=O)O; NMeA = CN[C@@H](C)C(=O)O; Nle = CCCC[C@H](N)C(=O)O

Chain of phosphorylation levels of ERK1/2 in AsPC-1 (homozygous KRAS-G12D) cells (P01116 1-186 G12D): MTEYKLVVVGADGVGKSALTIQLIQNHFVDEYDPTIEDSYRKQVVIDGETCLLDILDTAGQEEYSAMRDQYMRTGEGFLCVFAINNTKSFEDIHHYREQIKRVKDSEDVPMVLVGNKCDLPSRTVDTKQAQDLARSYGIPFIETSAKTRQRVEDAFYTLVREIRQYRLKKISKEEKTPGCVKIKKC

This assay concerns the target phosphorylation levels of ERK1/2 in AsPC-1 (homozygous KRAS-G12D) cells (Homo sapiens, UniProt P01116, G12D). Briefly: Cellular phospho-ERK assay in AsPC-1 cells (Alpha Screen), assay medium without fetal bovine serum.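 Further: signal taken as phospho-ERK over total ERK per well, both detected in one multiplex bead assay, EC50 from four-parameter logistic fit of dose-response curves.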 Particulars: phospho-ERK AlphaScreen, 18 h. Format: cell-based.
By EC50 is commonly meant the concentration that produces a half-maximal response. High values mean a need for much substance, low ones an effect from little substance. As for `CCCC[C@@H]1NC(=O)[C@H](Cc2ccc(NC(=N)N)cc2)NC(=O)[C@H](CCCN(C)C(=N)NC)N(C)C(=O)[C@H](Cc2ccccc2)NC(=O)[C@H]2C[C@@H](CNC(=O)[C@H](Cc3ccccc3)N(C)C(=O)[C@H](CCCC)NC(=O)[C@H](Cc3ccc(OC)cc3)NC1=O)C2` [compound 384, cyclo(F-NMeArg1MeMe-Phe4Gn-Nle-TyrOMe-Nle-NMeF-c3amCblc)] (cyclo(F[X22][Phe(4-guanidino)][Nle]Y(Me)[Nle][NMeF][cBu(1-CO,cis-3-CH2NH)])), the EC50 was above 50.8 µM. Then `CCCCC[C@@H]1NC(=O)[C@H](Cc2ccc(OC)cc2)NC(=O)[C@H](CC2CCC2)NC(=O)[C@H](Cc2ccc(NC(=N)N)cc2)NC(=O)CN(CCCS(C)(=O)=O)C(=O)[C@H](Cc2ccccc2)NC(=O)CSC[C@@](C)(C(N)=O)NC(=O)[C@H](Cc2ccccc2)N(C)C1=O` [compound 389, cyclo(F-Mspg-Phe4Gn-cBuA-TyrOMe-Ahp-NMeF-aMeCl-ClAc)] ({CH2CO}-F[X32][Phe(4-guanidino)][Cba]Y(Me)[Ahp(2)][NMeF][αMeC]-NH2; thioether N-8), with above 50.8 µM; and `CCCC[C@@H]1NC(=O)[C@H](Cc2cccnc2)NC(=O)[C@H](C)N(C)C(=O)[C@H](Cc2ccccc2)NC(=O)C23CC(CNC(=O)[C@H](Cc4cccnc4)N(C)C(=O)[C@H](CCCC)NC(=O)[C@H](Cc4ccccc4F)NC1=O)(C2)C3` [compound 162, cyclo(F-NMeA-3Pal-Nle-Phe2F-Nle-NMe3Pal-amBCP)] (cyclo(F[NMeA][3Pal][Nle][Phe(2-F)][Nle][NMe3Pal][X1])), with above 50.8 µM; and `CCCC[C@@H]1NC(=O)[C@H](Cc2ccc(O)cc2)NC(=O)[C@H](CC2CCCCC2)NC(=O)[C@H](CCCCN)NC(=O)[C@H](CCCNC(=N)N)NC(=O)[C@H](Cc2cccc3ccccc23)NC(=O)CSC[C@H](C(N)=O)NC(=O)[C@H](Cc2ccccc2)N(C)C1=O` [compound 139, cyclo(INal-R-K-Cha-Y-Nle-NMeF-dCl-ClAc)], with above 50.8 µM.

Take `CCCC[C@H]1/C=C\[C@@H](Cc2cccnc2)C(=O)NCC23CC(C2)(C3)C(=O)O[C@@H](Cc2ccccc2)C(=O)N(C)[C@@H](C)C(=O)N[C@@H](Cc2cncnc2)C(=O)N[C@@H](CCCC)C(=O)N[C@@H](Cc2ccccc2F)C(=O)N1` [SEQ ID NO: 137, cyclo(FLac-NMeA- PyrimAla-Nle-Phe2F- Nlecalken3Pal-amBCP)] (cyclo([NMeA][Ala(pyrimidin-5-yl)][Nle][Phe(2-F)][X48][X1][PhLac])): the EC50 was 11.2 µM. That is a double-digit micromolar value. Then `CCCCC[C@@H]1NC(=O)[C@H](Cc2ccc(OC)cc2)NC(=O)[C@H](CC2CCC2)NC(=O)[C@H](Cc2cc[nH]c(=O)c2)NC(=O)[C@H](CCCNC(=N)N)NC(=O)[C@H](Cc2ccccc2)NC(=O)CSC[C@@](C)(C(N)=O)NC(=O)[C@H](Cc2ccccc2)N(C)C1=O` [compound 368, cyclo(F-R-SCO4Pal-cBuA-TyrOMe-Ahp-NMeF-aMeCl-ClAc)], with above 50.8 µM; and `CCCC[C@@H]1NC(=O)[C@H](Cc2ccccc2F)NC(=O)[C@H](CCCC)OC(=O)[C@H](Cc2cccnc2)NC(=O)[C@H](CCN=[N+]=[N-])N(C)C(=O)[C@H](Cc2ccccc2)NC(=O)C23CC(CNC(=O)[C@H](Cc4cccnc4)N(C)C1=O)(C2)C3` [compound 250, cyclo(F-NMeDabN3-3Pal-NleLac-Phe2F-Nle-NMe3Pal-amBCP)] (cyclo(F[NMeAha][3Pal][X9][Phe(2-F)][Nle][NMe3Pal][X1])), with above 50.8 µM; and `CCCCC[C@@H]1NC(=O)[C@H](Cc2ccc(OC)cc2)NC(=O)[C@H](CC2CCC2)NC(=O)[C@H](Cc2ccc(N(C)C(=N)NC)cc2)NC(=O)[C@H](CCCNC(=N)N)NC(=O)[C@H](Cc2ccccc2)NC(=O)CSC[C@@](C)(C(N)=O)NC(=O)[C@H](Cc2ccccc2)N(C)C1=O` [compound 382, cyclo(F-R-Phe4GnMeMe-cBuA-TyrOMe-Ahp-NMeF-aMeCl-ClAc)], with above 50.8 µM. Then `CC(C)CC[C@@H]1NC(=O)[C@H](Cc2c(F)ccnc2F)NC(=O)[C@H](CC2CC2)NC(=O)[C@H](Cc2cncnc2)NC(=O)[C@H](C)N(C)C(=O)[C@H](Cc2ccccc2)OC(=O)C23CC(CNC(=O)[C@H](Cc4ccccc4)N(C)C1=O)(C2)C3` [compound 295, cyclo(FLac-NMeA-PyrimAla-cPrA-3Pal26F2-hL-NMeF-amBCP)] (cyclo([Ala(cPr)][X5][hLeu][NMeF][X1][PhLac][NMeA][Ala(pyrimidin-5-yl)])), with 29.6 µM; and `CCCCC[C@@H]1NC(=O)[C@H](Cc2ccc(OC)cc2)NC(=O)[C@H](CC2CCC2)NC(=O)[C@H](Cc2ccc(=O)[nH]c2)NC(=O)[C@H](CCCNC(=N)N)NC(=O)[C@H](Cc2ccccc2)NC(=O)CSC[C@@](C)(C(N)=O)NC(=O)[C@H](Cc2ccccc2)N(C)C1=O` [compound 369, cyclo(F-R-4CO3Pal-cBuA-TyrOMe-Abp-NMeF-aMeCl-ClAc)], with above 50.8 µM; and `CCCC[C@@H]1NC(=O)[C@H](Cc2cccnc2)NC(=O)[C@H](CCCn2ccnc2)N(C)C(=O)[C@H](Cc2ccccc2)OC(=O)C23CC(CNC(=O)[C@H](Cc4ccccc4)N(C)C(=O)[C@H](CCCC)NC(=O)[C@H](Cc4ccccc4F)NC1=O)(C2)C3` [compound 233, cyclo(FLac-NMeNvalmid-3Pal-Nle-Phe2F-Nle-NMeF-amBCP)] (cyclo([3Pal][Nle][Phe(2-F)][Nle][NMeF][X1][PhLac][NMeNva(5-imidazol-1-yl)])), with 5.16 µM. The value for `CCCC[C@@H]1NC(=O)[C@H](Cc2ccc(C(F)(F)F)nc2)NC(=O)[C@H](CCCn2ccnc2)N(C)C(=O)[C@H](Cc2ccccc2)OC(=O)C23CC(CNC(=O)[C@H](Cc4ccccc4)N(C)C(=O)[C@H](CCCC)NC(=O)[C@H](Cc4ccccc4F)NC1=O)(C2)C3` (single isomer, unassigned) [compound 218, cyclo(FLac-NMeNvalmid-4CF33Pal-Nle-Phe2F-Nle-NMeF-amBCP)] was above 50.8 µM; that for `CCCC[C@@H]1NC(=O)[C@H](Cc2cccnc2F)NC(=O)[C@H](C)N(C)C(=O)[C@H](Cc2ccccc2)OC(=O)C23CC(CNC(=O)[C@H](Cc4cccnc4)N(C)C(=O)[C@H](CCCC)NC(=O)[C@H](Cc4ccccc4F)NC1=O)(C2)C3` [compound 117, cyclo(FLac-NMeA~3Pal2F-Nle-Phe2F-Nle-NMe3Pal-amBCP)] (cyclo([NMe3Pal][X1][PhLac][NMeA][X46][Nle][Phe(2-F)][Nle])) was 50.2 µM. `CCCC[C@@H]1NC(=O)[C@H](Cc2cncnc2)NC(=O)[C@H](C)N(C)C(=O)[C@H](Cc2ccccc2)OC(=O)C23CC(CNC(=O)[C@H](Cc4cccc(C)c4)N(C)C(=O)[C@H](CCCC)NC(=O)[C@H](Cc4ccccc4F)NC1=O)(C2)C3` [compound 172, cyclo(FLac-NMeA-PyrimAla-Nle-Phe2F-Nle-NMePhe3Me-amBCP)] (cyclo([NMeA][Ala(pyrimidin-5-yl)][Nle][Phe(2-F)][Nle][NMePhe(3-Me)][X1][PhLac])): the EC50 amounted to 0.256 µM.

`CCCC[C@@H]1NC(=O)[C@H](Cc2cccnc2)NC(=O)[C@H](C)N(C)C(=O)[C@H](Cc2ccccc2)OC(=O)C23CC(CNC(=O)[C@H](Cc4ccc(C)nc4)N(C)C(=O)[C@H](CCCC)NC(=O)[C@H](Cc4ccccc4F)NC1=O)(C2)C3` [compound 402, cyclo(FLac-NMeA-3Pal-Nle-Phe2F-Nle-NMe3Pal4Me-amBCP)] (cyclo([3Pal][Nle][Phe(2-F)][Nle][NMe3Pal(6-Me)][X1][PhLac][NMeA])) came in with an EC50 of 9.95 µM.

The values above are taken from patent US20260001914A1, “MACROCYCLIC PEPTIDES TARGETING KRAS” (Merck Sharp & Dohme LLC, priority 2022, published 2026).
